Assay results from patent US11504330B2, “Formulation comprising particles containing a water-swellable or water-soluble polymeric component and a lipid component” (PERORA GMBH, priority 2014, dated 2022).

Assay: Tryptophan release / dissolution in fasted-state simulated gastric fluid (FaSSGF)
Type: physicochemical
Details: 30 mg powder in 22 mL FaSSGF, 37° C., agitated
Procedure: FaSSGF was prepared by dissolving 1 g of NaCl (Sigma-Aldrich) in 450 mL of water, adding 30 mg of SIF powder (biorelvant.com), adjusting the pH to 2.0 with 0.1 N HCl (Sigma-Aldrich) and adding water to a final volume of 500 mL.
30 mg of tryptophan powder were suspended in 22 mL FaSSGF at 37° C. and agitated (shaker ST5 from CAT, Germany). Aliquots were removed at time intervals of 5 min, and tryptophan concentration was quantified using absorption measurement at a wavelength of 280 nm in a NanoDrop® 2000 device (Thermo Scientific, USA).

N[C@@H](Cc1c[nH]c2ccccc12)C(=O)O [Tryptophan, L-Tryptophan]
time after which quantitatively dissolved: 10 min
